Data reported in US12428370B2, “Haloallylamine dual amine oxidase inhibitors” (Syntara Limited, priority 2020, dated 2025).

What was measured:
[1] = molecular target: T1, human recombinant SSAO/VAP-1 (Homo sapiens, UniProt Q16853); assay: Inhibition of human recombinant SSAO/VAP-1 (Amplex Red fluorometric assay); type: biochemical; conditions: 30 min incubation, 37° C., benzylamine substrate
T1 construct: a cloned cDNA template corresponding to residues 34-763 of human SSAO/VAP-1; TEV cleavage site (N); made in house
T1 sequence (Q16853 34-763): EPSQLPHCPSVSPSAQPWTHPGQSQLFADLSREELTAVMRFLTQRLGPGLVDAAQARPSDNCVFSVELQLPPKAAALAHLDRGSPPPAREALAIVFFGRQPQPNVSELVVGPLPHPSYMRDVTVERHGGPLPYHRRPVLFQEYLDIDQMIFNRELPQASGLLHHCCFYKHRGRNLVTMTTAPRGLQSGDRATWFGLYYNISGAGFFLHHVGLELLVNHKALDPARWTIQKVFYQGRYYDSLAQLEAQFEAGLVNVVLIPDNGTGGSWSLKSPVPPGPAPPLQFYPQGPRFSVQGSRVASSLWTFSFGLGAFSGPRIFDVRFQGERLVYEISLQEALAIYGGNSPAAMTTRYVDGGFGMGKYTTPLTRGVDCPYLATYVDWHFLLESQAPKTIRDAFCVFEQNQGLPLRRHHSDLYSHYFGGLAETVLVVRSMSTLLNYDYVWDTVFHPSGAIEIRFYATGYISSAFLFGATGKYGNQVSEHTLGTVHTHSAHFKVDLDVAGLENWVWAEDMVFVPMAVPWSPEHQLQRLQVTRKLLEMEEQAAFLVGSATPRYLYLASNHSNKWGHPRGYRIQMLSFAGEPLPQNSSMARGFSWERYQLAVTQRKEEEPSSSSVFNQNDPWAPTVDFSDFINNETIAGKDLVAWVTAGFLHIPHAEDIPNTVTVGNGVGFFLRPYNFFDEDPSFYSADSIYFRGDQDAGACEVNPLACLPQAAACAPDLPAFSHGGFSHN
Procedure: Method to Determine the Ability of Compounds of Formula I to Inhibit Human Recombinant SSAO/VAP-1
Human recombinant SSAO/VAP-1 amine oxidase activity was determined using the method as described for monoamine oxidase, copper-containing amine oxidases and related enzymes (Holt A. and Palcic M., Nat. Protoc. 2006, 1, 2498-2505). Briefly, a cloned cDNA template corresponding to residues 34-763 of human SSAO/VAP-1, and incorporating a mouse Ig kappa (κ) signal sequence, N-terminal flag epitope tag and tobacco etch virus (TEV) cleavage site, was assembled in a mammalian expression vector (pLO-CMV) by Geneart AG. This vector containing human SSAO/VAP-1 residues was transfected into CHO-K1 glycosylation mutant cell line, Lec 8. A clone stably expressing human SSAO/VAP-1 was isolated and cultured in large scale. Active human SSAO/VAP-1 was purified and recovered using immunoaffinity chromatography. This was used as the source for SSAO/VAP-1 activity. A high-throughput colorimetric assay was developed using either 96 or 384 well format. Briefly, in a standard 96 well plate assay 50 μL of purified human SSAO/VAP-1 (0.25 μg/mL) in 0.1 M sodium phosphate buffer (pH 7.4) was added into each well. […] After 30 min incubation, 50 μL of the reaction mixture containing 600 μM benzylamine (Sigma Aldrich), 120 μM Amplex Red (Sigma Aldrich) and 1.5 U/mL horseradish peroxidase (Sigma Aldrich) prepared in 0.1 M sodium phosphate buffer (pH 7.4) were added to the corresponding well. The fluorescence unit (RFU) was read every 2.5 min for 30 min at 37° C. excitation 565 nm and emission 590 nm (Optima; BMG labtech). The slope of the kinetics for each well was calculated using MARS data analysis software (BMG labtech) and this value was used to deduce the IC50 value (Dotmatics).

Recombinant human MAO-B = molecular target: T2, Recombinant human MAO-B (Homo sapiens, UniProt P27338); assay: Inhibition of human recombinant MAO-B; type: biochemical; conditions: incubation time of 2 hours, benzylamine 100 μM
T2 construct: purchased Sigma Aldrich
T2 sequence (P27338 1-520): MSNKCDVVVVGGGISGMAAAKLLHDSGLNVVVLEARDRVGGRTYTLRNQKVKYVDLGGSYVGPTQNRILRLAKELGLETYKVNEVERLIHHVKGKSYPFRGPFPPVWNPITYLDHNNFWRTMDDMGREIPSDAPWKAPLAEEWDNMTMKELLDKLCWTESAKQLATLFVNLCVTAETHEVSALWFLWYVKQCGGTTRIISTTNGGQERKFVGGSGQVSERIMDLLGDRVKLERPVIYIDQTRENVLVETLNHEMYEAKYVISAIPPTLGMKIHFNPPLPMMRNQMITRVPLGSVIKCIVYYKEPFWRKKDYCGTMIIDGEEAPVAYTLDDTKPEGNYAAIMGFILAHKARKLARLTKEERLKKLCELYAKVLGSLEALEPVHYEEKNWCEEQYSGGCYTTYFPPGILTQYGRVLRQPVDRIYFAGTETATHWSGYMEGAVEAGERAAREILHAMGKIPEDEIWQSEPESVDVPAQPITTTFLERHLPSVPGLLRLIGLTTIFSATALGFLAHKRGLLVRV
Procedure: Method to Determine the Ability of Compounds of Formula I to Inhibit Human Recombinant MAO-B
The ability of the compounds of this invention to inhibit MAO-B activities in vitro was tested. Recombinant human MAO-B (0.06 mg/mL; Sigma Aldrich) was used as source of MAO-B enzyme activities.

recombinant human MAO-A = molecular target: T3, recombinant human MAO-A (Homo sapiens, UniProt P21397); assay: Inhibition of human recombinant MAO-A; type: biochemical; conditions: incubation time of 2 hours, tyramine 100 μM
T3 construct: purchased Sigma Aldrich
T3 sequence (P21397 1-527): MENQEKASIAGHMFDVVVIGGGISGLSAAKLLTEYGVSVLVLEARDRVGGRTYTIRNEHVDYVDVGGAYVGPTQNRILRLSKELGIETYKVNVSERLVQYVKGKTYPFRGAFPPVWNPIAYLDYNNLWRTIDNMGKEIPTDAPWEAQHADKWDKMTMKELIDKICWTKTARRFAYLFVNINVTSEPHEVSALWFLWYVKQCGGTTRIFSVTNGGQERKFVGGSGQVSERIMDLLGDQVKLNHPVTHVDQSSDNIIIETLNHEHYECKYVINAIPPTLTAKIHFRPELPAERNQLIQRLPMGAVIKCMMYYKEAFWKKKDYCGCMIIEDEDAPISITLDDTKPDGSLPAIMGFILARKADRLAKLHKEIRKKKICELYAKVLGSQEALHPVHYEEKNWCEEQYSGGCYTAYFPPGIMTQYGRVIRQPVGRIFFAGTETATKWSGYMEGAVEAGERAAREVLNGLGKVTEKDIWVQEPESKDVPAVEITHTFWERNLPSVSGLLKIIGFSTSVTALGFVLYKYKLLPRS
Procedure: Method to Determine the Ability of Compounds of Formula I to Inhibit Human Recombinant MAO-A
The selectivity of the compounds of this invention was tested by determining their ability to inhibit MAO-A activity in vitro, using recombinant human MAO-A (0.003 mg/mL; Sigma Aldrich). The assay was performed in a similar way as for human SSAO/VAP-1 (EXAMPLE 9) except, the substrate tyramine was used at 100 μM in place of benzylamine and the assay was run after an incubation time of 2 hours.

[2] = tested on: Myogenic cell cultures from both mdx mice and DMD patients; conditions: in vitro; cited from earlier work
mdx mice = conditions: 3-month old mdx mice, Vitiello L. et al. 2018; cited from earlier work

Row | Structure (SMILES) | IC50 [1] | IC50 (Recombinant human MAO-B) | IC50 (recombinant human MAO-A) | susceptibility (sensitivity) to oxidative stress [2] | myofiber damage, oxidative stress and muscle function (mdx mice)
1 | N#Cc1ccc(OC/C(=C/F)CN)cc1F [Compound 2, (E)-4-((2-(aminomethyl)-3-fluoroallyl)oxy)-2-fluorobenzonitrile] | < 10 nM | < 50 nM | > 30000 nM | – | –
2 | N#Cc1ccc(OC/C(=C/F)CN)cc1Br [Compound 3, (E)-4-((2-(aminomethyl)-3-fluoroallyl)oxy)-2-bromobenzonitrile] | < 10 nM | < 50 nM | 3000 to 30000 nM | – | –
3 | N#Cc1ccc(OC/C(=C/F)CN)c(F)c1 [Compound 4, (E)-4-((2-(aminomethyl)-3-fluoroallyl)oxy)-3-fluorobenzonitrile] | < 10 nM | < 50 nM | 3000 to 30000 nM | – | –
4 | Cc1cc(OC/C(=C/F)CN)ccc1C#N [Compound 5, (E)-4-((2-(aminomethyl)-3-fluoroallyl)oxy)-2-methylbenzonitrile] | < 10 nM | < 50 nM | 3000 to 30000 nM | – | –
5 | COc1cc(OC/C(=C/F)CN)ccc1C#N [Compound 7] | 10 to 500 nM | 50 to 500 nM | > 30000 nM | – | –
6 | NC/C(=C\F)COc1ccc(OC(F)(F)F)cc1 [Compound 13] | < 10 nM | < 50 nM | < 300 nM | – | –
7 | C[C@H](NCc1ccc(OCc2cccc(F)c2)cc1)C(N)=O [safinamide] | – | – | – | abrogated | reduced myofiber damage and oxidative stress, and improved muscle function

Now from value to compound, other results behind:

Row | IC50 [1] | IC50 (Recombinant human MAO-B) | IC50 (recombinant human MAO-A) | Structure (SMILES) | susceptibility (sensitivity) to oxidative stress [2] | myofiber damage, oxidative stress and muscle function (mdx mice)
8 | < 10 nM | < 50 nM | 300 to 3000 nM | N#Cc1ccc(OC/C(=C\F)CN)cc1 [Compound 6] | – | –
9 | > 1000 nM | < 50 nM | < 300 nM | N#Cc1ccccc1OC/C(=C/F)CN [Compound 8] | – | –
10 | < 10 nM | < 50 nM | 300 to 3000 nM | N#Cc1cccc(OC/C(=C/F)CN)c1 [Compound 9] | – | –
11 | 10 to 500 nM | < 50 nM | 300 to 3000 nM | NC/C(=C\F)COc1ccccc1 [Compound 10] | – | –
12 | < 10 nM | < 50 nM | 3000 to 30000 nM | NC/C(=C\F)COc1ccc(C(F)(F)F)cc1 [Compound 11] | – | –
13 | < 10 nM | > 1000 nM | > 30000 nM | CS(=O)(=O)c1ccc(OC/C(=C/F)CN)cc1 [Compound 12] | – | –
14 | < 10 nM | < 50 nM | 300 to 3000 nM | COc1ccc(OC/C(=C\F)CN)cc1 [Compound 14] | – | –
